Assay results: patent US10039759B2, “Quinolines as FGFR kinase modulators” (priority 2011, dated 2018)
Where two headings read alike, the source gives them in different places.

What was measured:
FGFR2 (h) = FGFR2 (h) (Homo sapiens, UniProt P21802); assay: FGFR2 (enzymatic assay), TR-FRET; assay type: biochemical; conditions: 60 min, pIC50 = -log IC50 (M), average if tested multiple times
FGFR3 (h) = FGFR3 (h) (Homo sapiens, UniProt P22607); assay: FGFR3 (enzymatic assay), TR-FRET; assay type: biochemical; conditions: 60 min, pIC50 = -log IC50 (M), average if tested multiple times
FGFR4 (h) = FGFR4 (h) (Homo sapiens, UniProt P22455); assay: FGFR4 (enzymatic assay), TR-FRET; assay type: biochemical; conditions: FGFR 4 pIC50, 5 μM ATP, 60 min; pIC50 = -log IC50 (M); average if tested multiple times
KDR (h) = KDR (h) (Homo sapiens, UniProt P35968); assay: KDR (VEGFR2) (enzymatic assay), TR-FRET; assay type: biochemical; conditions: 120 min, pIC50 = -log IC50 (M), average if tested multiple times
Procedure: KDR (VEGFR2) (Enzymatic Assay)
In a final reaction volume of 30 μL, KDR (h) (150 ng/ml) was incubated with 50 mM HEPES pH 7.5, 6 mM MnCl2, 1 mM DTT, 0.1 mM Na3VO4, 0.01% Triton-X-100, 500 nM Btn-Flt3 and 3 μM ATP in the presence of compound (1% DMSO final). After incubation for 120 minutes at room temperature the reaction was stopped with 2.27 nM EU-anti P-Tyr, 7 mM EDTA, 31.25 nM SA-XL-665 and 0.02% BSA which was present for 60 minutes at room temperature. Time-Resolved Fluorescence Resonance Energy Transfer (TR-FRET) signal (ex340 nm. Em 620 nm, em 655 nm) was measured afterwards and results are expressed in RFU (Relative Fluorescence Units). In this assay, the inhibitory effect of different compound concentrations (range 10 μM to 0.1 nM) was determined and used to calculate an IC50 (M) and pIC50 (−log IC50) value.

[1] = molecular target: T1, Ba/F3-FGFR1-transfected cells (Homo sapiens, UniProt P11362, cells depend on it, form not given); assay: Ba/F3-FGFR1 (minus IL3 or plus IL3) cellular proliferation assay, Alamar Blue; assay type: cell-based; conditions: minus IL3, 24 hours
T1 construct: other: minus IL3; 24 hours, Alamar Blue
Procedure: Ba/F3-FGFR1 (Minus IL3 or Plus IL3) (Cellular Proliferation Assay)
(§1) In a 384 well plate, 100 nl of compound dilution in DMSO was sprayed before adding 50 μl cell culture medium (phenol red free RPMI-1640, 10% FBS, 2 mM L-Glutamine and 50 μg/ml Gentamycin) containing 20000 cells per well of Ba/F3-FGFR1-transfected cells. Cells were put in an incubator at 37° C. and 5% CO2. After 24 hours, 10 μl of Alamar Blue solution (0.5 mM K3Fe(CN)6, 0.5 mM K4Fe(CN)6, 0.15 mM Resazurin and 100 mM Phosphate Buffer) was added to the wells, incubated for 4 hours at 37° C. and 5% CO2 before RFU's (Relative Fluorescence Units) (ex. 540 nm., em. 590 nm.) were measured in a fluorescence plate reader.
(§2) In this assay, the inhibitory effect of different compound concentrations (range 10 μM to 0.1 nM) was determined and used to calculate an IC50 (M) and pIC50 (−log IC50) value. As a counterscreen the same experiment was performed in the presence of 10 ng/ml murine IL3.

[2] = molecular target: T2, Ba/F3-FGFR3-transfected cells (Homo sapiens, UniProt P22607, cells depend on it, form not given); assay: Ba/F3-FGFR3 (minus IL3 or plus IL3) cellular proliferation assay, Alamar Blue; assay type: cell-based; conditions: minus IL3; 24 hours, Alamar Blue
T2 construct: BAF3-FGFR3 (MIN IL3 Alamar Blue- pIC50); other: minus IL3; 24 hours, Alamar Blue
Procedure: (§3) Ba/F3-FGFR3 (Minus IL3 or Plus IL3) (Cellular Proliferation Assay)
as §1, with “Ba/F3-FGFR3-transfected” for “Ba/F3-FGFR1-transfected”
as §2

[3] = tested on: Ba/F3-FGFR3-transfected cells; assay: as above; assay type: cell-based; conditions: plus IL3 (10 ng/ml murine IL3, counterscreen); 24 hours, Alamar Blue; read-out: BAF3-FGFR3 (PLUS IL3 Alamar Blue pIC50) (converted)
Procedure: as §3
as §1, with “Ba/F3-FGFR3-transfected” for “Ba/F3-FGFR1-transfected”
as §2

[4] = molecular target: T3, Ba/F3-KDR-transfected cells (Homo sapiens, UniProt P35968, cells depend on it, form not given); assay: Ba/F3-KDR (minus IL3 or plus IL3) cellular proliferation assay, Alamar Blue; assay type: cell-based; conditions: minus IL3; 24 hours, Alamar Blue
T3 construct: BAF3-KDR (MIN IL3 Alamar Blue pIC50); other: minus IL3; 24 hours, Alamar Blue
Procedure: (§4) Ba/F3-KDR (Minus IL3 or Plus IL3) (Cellular Proliferation Assay)
as §1, with “Ba/F3-KDR-transfected” for “Ba/F3-FGFR1-transfected”
as §2

[5] = tested on: Ba/F3-KDR-transfected cells; assay: as above; assay type: cell-based; conditions: plus IL3 (10 ng/ml murine IL3, counterscreen); 24 hours, Alamar Blue; read-out: BAF3-KDR (PLUS IL3 Alamar Blue pIC50) (converted)
Procedure: as §4
as §1, with “Ba/F3-KDR-transfected” for “Ba/F3-FGFR1-transfected”
as §2

[6] = molecular target: Ba/F3-FGFR4-transfected cells (Homo sapiens, UniProt P22455); assay: Ba/F3-FGFR4 cellular proliferation assay, Alamar Blue; assay type: cell-based; conditions: 24 hours
Procedure: Ba/F3-FGFR4 (Cellular Proliferation Assay)
as §1, with “Ba/F3-FGFR4-transfected” for “Ba/F3-FGFR1-transfected”
In this assay, the inhibitory effect of different compound concentrations (range 10 μM to 0.1 nM) was determined and used to calculate an IC50 (M) and pIC50 (−log IC50) value.

FGFR1 (h) = FGFR1 (h) (Homo sapiens, UniProt P11362); assay: FGFR1 (enzymatic assay), TR-FRET; assay type: biochemical; conditions: FGFR 1 pIC50, 5 μM ATP, 60 min; pIC50 = -log IC50 (M); average if tested multiple times
[7] = 0.4 μM ATP, read-out: FGFR 2 pIC50 (converted)
[8] = 25 μM ATP, read-out: hFGFR 3 pIC50 (converted)
[9] = 3 μM ATP, read-out: VEGFR KDR pIC50 (converted)

KDR (h), sequence (P35968 20-1356): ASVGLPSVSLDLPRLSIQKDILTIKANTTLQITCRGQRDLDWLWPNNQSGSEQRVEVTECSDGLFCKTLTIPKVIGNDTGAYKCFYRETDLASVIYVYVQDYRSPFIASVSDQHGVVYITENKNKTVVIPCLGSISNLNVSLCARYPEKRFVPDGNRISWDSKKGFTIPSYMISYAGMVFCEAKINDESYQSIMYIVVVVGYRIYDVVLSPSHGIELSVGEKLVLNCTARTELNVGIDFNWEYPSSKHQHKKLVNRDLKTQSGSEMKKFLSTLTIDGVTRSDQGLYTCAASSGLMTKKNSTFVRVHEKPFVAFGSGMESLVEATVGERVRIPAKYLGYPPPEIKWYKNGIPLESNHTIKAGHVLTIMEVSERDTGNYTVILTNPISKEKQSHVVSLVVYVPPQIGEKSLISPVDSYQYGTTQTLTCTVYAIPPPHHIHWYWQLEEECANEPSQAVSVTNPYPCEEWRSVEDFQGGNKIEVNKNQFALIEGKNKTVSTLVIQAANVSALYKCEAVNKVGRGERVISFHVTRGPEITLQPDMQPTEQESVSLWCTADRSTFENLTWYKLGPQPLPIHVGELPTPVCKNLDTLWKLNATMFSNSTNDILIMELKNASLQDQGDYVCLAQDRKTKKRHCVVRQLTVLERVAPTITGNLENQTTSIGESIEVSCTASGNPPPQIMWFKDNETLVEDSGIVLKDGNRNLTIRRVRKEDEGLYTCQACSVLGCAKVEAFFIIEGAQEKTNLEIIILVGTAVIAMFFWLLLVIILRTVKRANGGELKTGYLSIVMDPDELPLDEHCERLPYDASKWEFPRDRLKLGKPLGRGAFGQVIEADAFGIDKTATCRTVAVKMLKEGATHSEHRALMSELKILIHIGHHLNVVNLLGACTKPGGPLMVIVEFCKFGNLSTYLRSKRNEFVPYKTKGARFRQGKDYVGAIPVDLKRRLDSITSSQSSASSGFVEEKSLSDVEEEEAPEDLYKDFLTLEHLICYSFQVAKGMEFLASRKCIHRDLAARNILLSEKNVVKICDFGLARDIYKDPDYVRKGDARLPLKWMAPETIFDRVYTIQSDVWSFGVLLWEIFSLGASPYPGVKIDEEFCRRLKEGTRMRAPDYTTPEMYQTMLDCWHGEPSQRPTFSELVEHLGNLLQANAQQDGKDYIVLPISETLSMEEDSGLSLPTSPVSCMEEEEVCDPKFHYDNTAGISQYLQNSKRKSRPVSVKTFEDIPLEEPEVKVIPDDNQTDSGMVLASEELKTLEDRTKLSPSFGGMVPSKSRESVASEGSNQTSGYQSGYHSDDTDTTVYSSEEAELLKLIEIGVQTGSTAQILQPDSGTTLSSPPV
T3 sequence (P35968 whole entry, change not shown): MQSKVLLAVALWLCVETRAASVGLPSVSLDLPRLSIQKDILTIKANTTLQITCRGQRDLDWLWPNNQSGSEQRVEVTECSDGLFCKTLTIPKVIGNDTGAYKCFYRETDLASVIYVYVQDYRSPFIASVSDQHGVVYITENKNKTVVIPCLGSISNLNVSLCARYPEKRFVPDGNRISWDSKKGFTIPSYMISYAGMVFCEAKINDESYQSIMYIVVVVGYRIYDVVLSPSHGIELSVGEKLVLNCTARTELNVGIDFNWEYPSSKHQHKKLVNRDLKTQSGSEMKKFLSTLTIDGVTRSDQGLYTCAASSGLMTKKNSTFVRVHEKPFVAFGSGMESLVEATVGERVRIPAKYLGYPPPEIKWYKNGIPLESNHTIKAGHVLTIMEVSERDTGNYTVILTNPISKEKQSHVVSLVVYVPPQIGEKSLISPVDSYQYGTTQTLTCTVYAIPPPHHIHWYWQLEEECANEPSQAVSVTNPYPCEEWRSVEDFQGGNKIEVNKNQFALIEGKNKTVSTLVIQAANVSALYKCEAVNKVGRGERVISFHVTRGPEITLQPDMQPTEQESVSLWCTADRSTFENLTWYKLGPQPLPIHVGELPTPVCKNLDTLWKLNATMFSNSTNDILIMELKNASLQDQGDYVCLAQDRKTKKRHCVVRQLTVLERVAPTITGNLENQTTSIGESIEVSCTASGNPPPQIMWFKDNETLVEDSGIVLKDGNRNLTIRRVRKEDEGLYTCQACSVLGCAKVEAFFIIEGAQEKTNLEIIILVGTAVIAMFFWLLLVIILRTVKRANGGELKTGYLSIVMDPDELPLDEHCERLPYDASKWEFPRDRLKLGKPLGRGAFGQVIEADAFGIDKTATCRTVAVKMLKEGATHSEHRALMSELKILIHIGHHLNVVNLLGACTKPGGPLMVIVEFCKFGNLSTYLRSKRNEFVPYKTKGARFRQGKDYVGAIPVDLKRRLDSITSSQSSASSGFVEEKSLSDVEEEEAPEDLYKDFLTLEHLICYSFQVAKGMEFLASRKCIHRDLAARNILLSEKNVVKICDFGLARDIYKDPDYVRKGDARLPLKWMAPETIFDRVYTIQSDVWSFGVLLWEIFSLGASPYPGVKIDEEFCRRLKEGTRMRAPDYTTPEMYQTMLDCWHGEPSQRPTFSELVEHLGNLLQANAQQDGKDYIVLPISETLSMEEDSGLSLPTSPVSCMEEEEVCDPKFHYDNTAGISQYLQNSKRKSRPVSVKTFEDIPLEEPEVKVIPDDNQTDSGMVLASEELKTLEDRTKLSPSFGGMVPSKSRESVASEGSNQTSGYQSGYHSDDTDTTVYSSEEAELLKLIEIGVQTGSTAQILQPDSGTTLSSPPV
FGFR2 (h), sequence (P21802 22-821): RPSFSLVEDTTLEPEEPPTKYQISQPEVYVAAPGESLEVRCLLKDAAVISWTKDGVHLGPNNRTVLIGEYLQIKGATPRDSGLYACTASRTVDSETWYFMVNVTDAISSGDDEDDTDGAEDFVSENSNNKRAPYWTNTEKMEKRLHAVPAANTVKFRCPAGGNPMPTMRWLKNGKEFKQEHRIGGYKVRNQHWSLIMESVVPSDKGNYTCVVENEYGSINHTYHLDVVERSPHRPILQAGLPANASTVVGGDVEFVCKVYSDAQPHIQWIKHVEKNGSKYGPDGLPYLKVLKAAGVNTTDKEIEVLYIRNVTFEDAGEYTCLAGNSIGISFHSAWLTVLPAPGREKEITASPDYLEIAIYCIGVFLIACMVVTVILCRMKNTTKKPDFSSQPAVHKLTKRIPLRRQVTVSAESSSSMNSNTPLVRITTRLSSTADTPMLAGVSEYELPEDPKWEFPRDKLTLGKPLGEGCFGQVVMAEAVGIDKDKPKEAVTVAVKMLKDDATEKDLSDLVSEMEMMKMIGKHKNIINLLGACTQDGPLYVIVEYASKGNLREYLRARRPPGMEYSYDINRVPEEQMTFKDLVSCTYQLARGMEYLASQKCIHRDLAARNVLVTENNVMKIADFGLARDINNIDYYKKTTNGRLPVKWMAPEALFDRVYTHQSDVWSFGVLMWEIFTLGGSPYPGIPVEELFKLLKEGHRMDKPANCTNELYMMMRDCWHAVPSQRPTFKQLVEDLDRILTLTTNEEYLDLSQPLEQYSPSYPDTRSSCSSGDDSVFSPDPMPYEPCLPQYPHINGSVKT
FGFR4 (h), sequence (P22455 22-802): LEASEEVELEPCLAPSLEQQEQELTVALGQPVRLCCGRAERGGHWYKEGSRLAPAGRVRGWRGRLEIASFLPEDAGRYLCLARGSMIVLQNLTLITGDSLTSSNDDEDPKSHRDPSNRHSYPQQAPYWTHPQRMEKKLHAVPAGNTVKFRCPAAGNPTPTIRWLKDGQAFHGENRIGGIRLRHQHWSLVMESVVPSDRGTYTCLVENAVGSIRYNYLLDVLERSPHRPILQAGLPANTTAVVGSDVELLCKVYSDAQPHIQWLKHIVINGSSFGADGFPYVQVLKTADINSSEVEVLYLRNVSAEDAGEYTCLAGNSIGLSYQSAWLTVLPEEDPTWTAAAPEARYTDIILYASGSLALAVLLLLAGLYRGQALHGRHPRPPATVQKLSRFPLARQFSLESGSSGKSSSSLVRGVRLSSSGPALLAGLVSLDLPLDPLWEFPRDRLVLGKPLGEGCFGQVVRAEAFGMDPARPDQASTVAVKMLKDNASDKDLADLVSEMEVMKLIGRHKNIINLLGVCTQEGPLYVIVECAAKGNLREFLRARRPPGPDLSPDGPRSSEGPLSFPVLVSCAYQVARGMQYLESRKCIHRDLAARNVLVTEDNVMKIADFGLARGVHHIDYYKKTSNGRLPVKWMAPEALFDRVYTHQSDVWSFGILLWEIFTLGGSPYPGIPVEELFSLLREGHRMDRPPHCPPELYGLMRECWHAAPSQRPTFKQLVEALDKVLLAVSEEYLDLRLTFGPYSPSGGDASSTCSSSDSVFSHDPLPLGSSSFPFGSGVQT
Ba/F3-FGFR4-transfected cells, sequence (P22455 whole entry, change not shown): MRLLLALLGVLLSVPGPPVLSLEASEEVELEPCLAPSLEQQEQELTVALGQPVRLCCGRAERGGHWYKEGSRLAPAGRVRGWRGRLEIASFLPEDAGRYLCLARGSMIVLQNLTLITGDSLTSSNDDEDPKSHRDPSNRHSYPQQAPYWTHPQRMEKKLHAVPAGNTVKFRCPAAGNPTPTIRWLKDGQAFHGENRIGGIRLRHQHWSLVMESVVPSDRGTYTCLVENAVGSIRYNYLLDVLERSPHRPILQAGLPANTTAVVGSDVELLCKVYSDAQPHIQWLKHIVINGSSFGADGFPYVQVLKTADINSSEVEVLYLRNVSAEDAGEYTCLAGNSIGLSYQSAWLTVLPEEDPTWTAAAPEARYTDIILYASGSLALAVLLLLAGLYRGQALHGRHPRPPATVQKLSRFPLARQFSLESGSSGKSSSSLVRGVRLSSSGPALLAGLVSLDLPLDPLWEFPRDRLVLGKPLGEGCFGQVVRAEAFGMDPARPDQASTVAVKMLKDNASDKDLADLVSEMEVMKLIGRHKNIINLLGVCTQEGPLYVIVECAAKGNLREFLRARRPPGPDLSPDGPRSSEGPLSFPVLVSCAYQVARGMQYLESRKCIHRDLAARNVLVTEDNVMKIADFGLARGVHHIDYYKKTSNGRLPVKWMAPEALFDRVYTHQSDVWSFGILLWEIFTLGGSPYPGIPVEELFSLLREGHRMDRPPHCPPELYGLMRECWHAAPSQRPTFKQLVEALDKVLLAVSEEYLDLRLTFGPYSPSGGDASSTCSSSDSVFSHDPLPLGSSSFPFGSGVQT

SMILES	IC50 (FGFR2 (h); [7]) [M]	IC50 (FGFR3 (h); [8]) [M]	IC50 (FGFR4 (h)) [M]	IC50 (KDR (h); [9]) [M]	BAF3-FGFR1 (MIN IL3 pIC50) [1]	BAF3-FGFR3 (MIN IL3 Alamar Blue- pIC50) [2]	IC50 [3] [nM]	BAF3-KDR (MIN IL3 Alamar Blue pIC50) [4]	IC50 [5] [nM]	BAF3-FGFR 4 (pIC50) [6]	IC50 (FGFR1 (h)) [M]	IC50 (FGFR2 (h); FGFR 2 pIC50, 0.4 μM ATP) [M]	IC50 (FGFR3 (h); hFGFR 3 pIC50, 25 μM ATP) [M]	IC50 (KDR (h); VEGFR KDR pIC50, 3 μM ATP) [M]
COc1cc(OC)cc(N(CC2CCC(=O)N2)c2ccc3ncc(-c4cnn(C)c4)cc3c2)c1 (stereo not shown) [Compound 44]	3.24e-09	1.7e-09	~1.35e-08	5.25e-08	5.65	6.61	> 10000	5.18	> 10000	6.00				
COc1cc(OC)cc(N(Cc2ncc[nH]2)c2ccc3ncc(C4=CCNCC4)cc3c2)c1 [Compound 46]			1.7e-08		5.89	5.68		<5		5.28	6.31e-09	3.63e-09	2.45e-09	1.02e-06
COc1cc(OC)cc(N(Cc2ncc[nH]2)c2ccc3ncc(C4CCNCC4)cc3c2)c1 [Compound 48a]	1.7e-07	4.17e-07	8.32e-07	> 1e-06	<5	<5	> 10000	<5	> 10000	<5	2.95e-07			
COc1cc(OC)cc(N(CCNC(C)C)c2ccc3ncc(-c4ccccc4)cc3c2)c1 [Compound 51]	3.98e-09	7.94e-09	1.38e-08	1.7e-07	6.13	5.82	> 10000	5.15	~6030	5.87	2.75e-09			
COc1cc(OC)cc(N(Cc2ncc[nH]2)c2ccc3ncc(N4CCOCC4)cc3c2)c1 [Compound 55]	2e-08	2.04e-08	1.32e-07	> 1e-06	5.64	5.77		<5		5.37	9.12e-08			
COc1cc(OC)cc(N(Cc2ncc[nH]2)c2ccc3ncc(-c4ccn(C)c4)cc3c2)c1 [Compound 62]	2.09e-09	1.45e-09	3.31e-09	2.57e-07	6.63	6.75		<5		6.24				
